System: IOP in Dutch Belted Rabbits
Assay: Intraocular pressure (IOP) measurements in conscious Dutch Belted rabbits after topical instillation
Assay type: in vivo, rabbit
Conditions: for 030 min (Δmm Hg) Treated Mean change in IOP / 60 min (Δmm Hg) Treated Mean change in IOP / 120 min (Δmm Hg) Treated Mean change in IOP / 180 min (Δmm Hg) Treated Mean change in IOP / 240 min (Δmm Hg) Treated Mean change in IOP / 30 min (Δ mm Hg) Treated Mean change in IOP: change from Time 0, n = 24
Protocol: Intraocular pressure measurements (IOP) were performed in conscious adult, pigmented Dutch Belted rabbits (2-4 kg). The animals were allowed free access to standard laboratory diet and tap water, and were housed on a 12 hour light/dark cycle. Seven day rest or washout periods were allowed between assessment of the effects of topically administered treatments on IOP. In order to measure IOP, rabbits were placed in commercially available restraint boxes. Rabbits were conditioned to the restraint boxes on at least two occasions for a period of time ranging up to 6 hours before their first study. On the morning of each experiment, rabbits were placed in restraint boxes for a period of one hour before the first measurement of IOP. IOP was recorded using a pneumatic tonometer (Alcon Applanation Pneumatonograph). Eyelids were gently separated manually and the fingers of the operator were held far enough from the eye to avoid any direct pressure on the eye and surrounding tissues. The membrane of the tonometer was placed on the central part of the cornea. Each measure of IOP lasted 3-5 seconds during which time the animal was completely relaxed. In general, two measures for each eye was sufficient, the first measure being frequently discarded. The tonometer tracing represents the oscillations which correspond to ocular pulsations; the average value of the oscillations corresponded to the level of IOP in mm Hg.
The initial measurement of control IOP was done on a number of rabbits, and 12 rabbits whose control IOP were between 17-25 mm Hg (values of IOP considered to be normal) were selected for study. In each study, the rabbits were separated into two equal subgroups of 6 rabbits each with essentially equivalent control IOPs. Each study consisted of the topical administration of active test substance to one subgroup of 6 rabbits (12 eyes) and vehicle to one subgroup of 6 rabbits (12 eyes); total number of eyes tested per study being 24. In each study, one drop (volume of 50 ul) of active test substance per vehicle was instilled by means of a Hamilton syringe into both eyes of each rabbit at time ) (To). IOPs were re-measured at 30 min, 1 hour, 2 hours, 3 hours and 4 hours after instillation. Results were expressed as mean+/−SD of changes in IOP (mm Hg) from the basal To levels measured just prior to the instillation of active test agent or vehicle. The significance of the data was determined as the difference from the To value using Dunnett's t-test, as well as use of an unpaired Student's t-test for comparisons of changes in IOP between test substance and vehicle at matched time points.
Vehicles consisted of 0.5% […] peanut oil. Formulation of test agents in peanut oil was performed as follows: peanut oil formulations were prepared by dissolving 0.5%, 0.2%, 0.1%, 0.05%, 0.025% or 0.01% (wt./wt) of the test compound in peanut oil. Sonnication was used to obtain complete dissolution of the compound.

[1] = Table 2, 0.1% in peanut oil, topical
[2] = Table 3, 0.1% in peanut oil, topical
[3] = Table 5, 0.1% in peanut oil, topical

CC(C)(C)NC[C@H](O)COc1nsnc1N1CCOCC1 [Timolol Free Base, timolol]
effect on IOP (in words) (0.5% (free base equivalent) formulated in peanut oil): significant IOP lowering | 030 min (Δmm Hg) Treated Mean change in IOP (0.5% in peanut oil, topical 50 ul both eyes, 30 min after instillation): −2.63 mm Hg | 60 min (Δmm Hg) Treated Mean change in IOP (0.5% in peanut oil, topical): −3.46 mm Hg | 120 min (Δmm Hg) Treated Mean change in IOP (0.5% in peanut oil, topical): −3.96 mm Hg | 180 min (Δmm Hg) Treated Mean change in IOP (0.5% in peanut oil, topical): −4.21 mm Hg | 240 min (Δmm Hg) Treated Mean change in IOP (0.5% in peanut oil, topical): −2.04 mm Hg

CC(C)(O)[C@H]1O[C@H]2CC[C@@]3(C)[C@@](O)(CC[C@H]4Cc5c([nH]c6ccccc56)[C@@]43C)C2=CC1=O [Paxilline]
30 min (Δ mm Hg) Treated Mean change in IOP (Table 2, 0.1% in peanut oil, topical, 30 min): −0.79 mm Hg | 60 min (Δmm Hg) Treated Mean change in IOP [1]: −2.67 mm Hg | 120 min (Δmm Hg) Treated Mean change in IOP [1]: −2.67 mm Hg | 180 min (Δmm Hg) Treated Mean change in IOP [1]: −1.71 mm Hg | 240 min (Δmm Hg) Treated Mean change in IOP [1]: −1.38 mm Hg

COc1ccc2c(c1)c(CC(=O)N(C(=O)NC1CCCCC1)C1CCCCC1)c(C)n2C(=O)c1ccc(Cl)cc1 [Compound 1]
effect on IOP (in words) (0.2% formulated in peanut oil): significant IOP lowering | 030 min (Δmm Hg) Treated Mean change in IOP (0.2% in peanut oil, topical, 30 min): −2.0 mm Hg | 60 min (Δmm Hg) Treated Mean change in IOP (0.2% in peanut oil, topical): −2.58 mm Hg | 120 min (Δmm Hg) Treated Mean change in IOP (0.2% in peanut oil, topical): −2.96 mm Hg | 180 min (Δmm Hg) Treated Mean change in IOP (0.2% in peanut oil, topical): −2.42 mm Hg | 240 min (Δmm Hg) Treated Mean change in IOP (0.2% in peanut oil, topical): −1.58 mm Hg

C=C(C)[C@H]1O[C@H]2CC[C@@]3(C)[C@@](O)(CC[C@H]4[C@@H]5OC(C)(C)[C@H]6C[C@@H]7C(=C)Cc8c(Cl)cc9[nH]c(c5c9c8[C@@]76O)[C@@]43C)[C@@]23O[C@H]3[C@H]1O [Penitrem A]
effect on IOP (in words) (0.1% formulated in peanut oil): significant IOP lowering | 30 min (Δ mm Hg) Treated Mean change in IOP (Table 3, 0.1% in peanut oil, topical, 30 min): −1.33 mm Hg | 60 min (Δmm Hg) Treated Mean change in IOP [2]: −2.08 mm Hg | 120 min (Δmm Hg) Treated Mean change in IOP [2]: −3.91 mm Hg | 180 min (Δmm Hg) Treated Mean change in IOP [2]: −2.96 mm Hg | 240 min (Δmm Hg) Treated Mean change in IOP [2]: −2.46 mm Hg

Afletrem
030 min (Δmm Hg) Treated Mean change in IOP (Table 5, 0.1% in peanut oil, topical, 30 min): −1.54 mm Hg | 60 min (Δmm Hg) Treated Mean change in IOP [3]: −2.04 mm Hg | 120 min (Δmm Hg) Treated Mean change in IOP [3]: −2.54 mm Hg | 180 min (Δmm Hg) Treated Mean change in IOP [3]: −2.13 mm Hg | 240 min (Δmm Hg) Treated Mean change in IOP [3]: −1.42 mm Hg

From patent US20040058976A1, “Ophthalmic compositions for treating ocular hypertension” (priority 2003, published 2004)
